± gives the expanded uncertainty stated by the source.
How the values were obtained:
[1] = Crystal; DSC
[2] = Molar enthalpy of transition or fusion; details: Crystal; DSC

C[N+](C)(C)C[C@H](O)CC(=O)[O-].O=C(O)/C=C/C(=O)O [L-carnitine fumarate]
Triple point temperature [1]: 412.2 ± 0.8 K | Molar enthalpy of transition or fusion [2]: 12.2 ± 0.335 kcal/mol

Reference: the NIST ThermoML archive (doi:10.1021/acs.jced.7b00768)
